The text below walks through data of EP2272342B1, “Herbicidal compositions” (BASF SE, priority 1993, dated 1994).

The subject of one test is echinochloa crus galli. Kind of test: Small field units in a maize field, 3-way tank-mix spray: weed control (Example 4). The test is classed as in vivo. As to conditions: 1500 a.i./ha; 14 days after treatment. From the text: Small field units in a maize field, infested with echinochloa crus galli, solanum nigrum and chenopodium album are sprayed with a tank-mix suspension of dimethenamid, sulcotrione and atrazine. The stage of the weeds is "full tillering" of echinochloa and "6-8 leaves stage" for solanum and chenopodium. The lot size is 8 meters in length and 3 meters in broadth. The application rates are 1.08 kg/ha of dimethenamid, 150 or 210 g/ha of sulcotrione and 750 g/ha of atrazine. 14 days after treatment the efficacy is evaluated.

Another test relates to Solanum/Chenopodium. The description is as above. The test is classed as in vivo, solanum nigrum and chenopodium album. To be noted: 1500 a.i./ha; 14 days after treatment. The protocol:
Small field units in a maize field, infested with echinochloa crus galli, solanum nigrum and chenopodium album are sprayed with a tank-mix suspension of dimethenamid, sulcotrione and atrazine. The stage of the weeds is "full tillering" of echinochloa and "6-8 leaves stage" for solanum and chenopodium. The lot size is 8 meters in length and 3 meters in broadth. […] 14 days after treatment the efficacy is evaluated.

In a further test the test system is cyperus rotundus. Kind of test: Field trial in sugar cane plots, tank mix by backpack sprayer: weed control (Example 5). The test is classed as in vivo. The protocol:
A field trial is carried out on plots (2 x 20 m) planted with sugar cane and infested with cyperus rotundus in the first or second growing stage and sprayed with a backpack sprayer in different concentrations in a tank mix. The amount of liquid spray broth is 400 I/ha.
The application rates are 2.7 kg/ha of dimethenamid with 60 g/ha of chlorimuron or with 1.6 kg/ha of a fixed ratio mixture of chlorimuron and diuron (1 : 19) which is commercially available as FRONT®. Visual evaluation is done 30 or 60 days after treatment (DAT) in percentage of control. The expected additive effect value is calculated according to the method of Colby: […]

The subject of a further test is large crabgrass. Kind of test: Field trial in corn, tankmix at early post-emergence: weed control (Example 2). The test is classed as in vivo. As for the experimental part:
A field trial is carried out employing FRONTIER® 7.5 EC and ACCENT® 75 WDG in control of large crabgrass in corn. Application is as tankmix combination at early post-emergence of the weeds (3 and 4 leaf stages). Application rates of a.i. are 1.5 and 0.75 kg/ha for dimethenamid and 37.2 and 19.2 g/ha for nicosulfuron. Combined application of 0.75 kg/ha of dimethenamid and 19.2 g/ha of nicosulfuron gave 85% control with negligible corn damage compared with 35% of nicosulfuron applied alone at 19.2 g/ha and 72% for dimethenamid at a higher rate of […]. Combined application at the higher rate of dimethenamid with 37.2 g/ha of nicosulfuron gave an even more dramatic effect with 95% control compared with 72% for dimethenamid and only 45% for nicosulfuron each alone.

Take `CCNc1nc(Cl)nc(NC(C)C)n1` [Atrazine, atrazine]: in the test with echinochloa crus galli, the Echinochloa control was 23%. The molecule further came in with a Solanum/Chenopodium control with Solanum/Chenopodium of 16%.
For the molecule `COCC(C)N(C(=O)CCl)c1c(C)csc1C` (centres unmarked) [Dimethenamid, 2-chloro-N-(2,4-dimethyl-3-thienyl)-N-(2-methoxy-1-methylethyl)-acetamide], the “Cyperus Control (DAT)” value in the test on cyperus rotundus (2.25 kg a.i./ha, light to medium soil, 30 DAT) is given as 23 (30 DAT) %; in the test with cyperus rotundus (2.7 kg a.i./ha, heavy soil, 60 DAT) it was 10 (60 DAT) %; in the test with cyperus rotundus (2.7 kg a.i./ha, light to medium soil, 30 DAT), 27 (30 DAT) %; in the test with cyperus rotundus (2.7 kg a.i./ha, light to medium soil, 60 DAT), 19 (60 DAT) %. Besides, the control in the test on large crabgrass (dimethenamid alone at a higher rate of 1.25 g/ha (so in the source)) was determined as 72%; in the test on large crabgrass (dimethenamid alone, higher rate (second comparison)), 72%.
Consider `COc1cc(OC)nc(NC(=O)NS(=O)(=O)c2ncccc2C(=O)N(C)C)n1` [nicosulfuron], for which the control with large crabgrass (nicosulfuron alone, 37.2 g/ha) was found to be 45%; with large crabgrass (nicosulfuron applied alone at 19.2 g/ha), 35%.
Take chlorimuron: the “Cyperus Control (DAT)” value in the test on cyperus rotundus (0.06 kg a.i./ha, light to medium soil, 30 DAT) is recorded as 58 (30 DAT) %.
